Test results from the OligoGym collection.
“And” between values parts separate entries of the source, which are not always exact repeats. Equal entries are not always repeated. After the bases stand the sugars from the 5' end (letter, count) and the backbone: PS all phosphorothioate, else s phosphorothioate and o phosphodiester by linkage. Methylation of C is not given here. e = 2'-O-(2-methoxyethyl) (MOE); k = constrained ethyl (cEt); d = 2'-deoxy (DNA)

Target: APOL1
Details: ASO

| Sequence | target mRNA inhibition (A431, 2 µM) [%] | target mRNA inhibition (A431, 0.0156 µM) [%] | target mRNA inhibition (A431, 0.0625 µM) | target mRNA inhibition (A431, 0.25 µM) | target mRNA inhibition (A431, 1 µM) | target mRNA inhibition (A431, 0.04 µM) |
| --- | --- | --- | --- | --- | --- | --- |
| TCTATTAGAGGGCTAG (sugars k2 d4 e3 k2 d5, PS) | 67 |  |  |  |  |  |
| TCTCATGGTACAGGAG (sugars kkddddkekekkdddd, PS) | 26 |  |  |  |  |  |
| TGAGTATTGTTTTTGT (sugars k3 d4 k3 e1 d5, PS) | 95 | 43 | 69% | 88% | 94% |  |
| TGAGTATTGTTTTTGT (sugars kkkddddkekeddddd, PS) | 92 | 16 | 47% | 74% | 90% |  |
| TGGAAATGCCAAAGTC (sugars k4 d9 k3, PS) |  |  | 62% | 88% | 96% |  |
| TGGGAATTATGGAATT (sugars k2 d4 e3 k2 d5, PS) | 63 |  |  |  |  |  |
| TGGTTCAAAAGCAGCA (sugars k4 d9 k3, PS) |  |  | 60% | 84% | 94% |  |
| TGTAAGTGCAACCAAT (sugars kddddkekekeddddd, PS) | 67 |  |  |  |  |  |
| TGTCTTGCAAGGTTGT (sugars k4 d9 k3, PS) |  |  | 57% | 73% | 84% |  |
| TGTGTTTAGGCATTCA (sugars k4 d9 k3, PS) |  |  |  | 61% and 86% | 65% and 86% |  |
| TGTTATATTTGATCCT (sugars kkddddekekeddddd, PS) | 94 | 17 | 41% | 71% | 85% |  |
| TGTTCTAACTCTTGGG (sugars k4 d9 k3, PS) |  |  | 75% | 88% | 94% |  |
| TGTTTACTTACCGGGT (sugars k4 d9 k3, PS) |  |  | 60% and 83% | 86% and 91% | 91% and 93% |  |
| TGTTTAGGCATTCAGA (sugars k4 d9 k3, PS) |  |  | 59% and 37% |  | 86% and 64% |  |
| TTATACCAGTGTCTTC (sugars kkddddkekekkdddd, PS) | 68 |  |  |  |  |  |
| TTATATTTGATCCTCA (sugars k3 d4 k3 e1 d5, PS) | 96 |  |  |  |  |  |
| TTATATTTGATCCTCA (sugars kkddddkekekkdddd, PS) | 69 |  |  |  |  |  |
| TTATGAAATTATTGGT (sugars k3 d4 k3 e1 d5, PS) | 85 |  |  |  |  |  |

| Sequence | target mRNA inhibition (A431, 2 µM) [%] | target mRNA inhibition (A431, 0.0156 µM) [%] | target mRNA inhibition (A431, 0.0625 µM) | target mRNA inhibition (A431, 0.25 µM) | target mRNA inhibition (A431, 1 µM) | target mRNA inhibition (A431, 0.04 µM) |
| --- | --- | --- | --- | --- | --- | --- |
| TTATGAAATTATTGGT (sugars kkddddkdkdkddddd, PS) | 47 |  |  |  |  |  |
| TTATTCTCATGGTACA (sugars k2 d4 e3 k2 d5, PS) | 48 |  |  |  |  |  |
| TTATTCTCATGGTACA (sugars kkddddekekeddddd, PS) | 51 |  |  |  |  |  |
| TTCAGAATTTCCACTA (sugars kddddkekekeddddd, PS) | 62 |  |  |  |  |  |
| TTCTATTAGAGGGCTA (sugars k4 d9 k3, PS) |  |  | 51% and 40% | 81% and 72% | 92% and 84% and 98% | 68% |
| TTCTATTAGAGGGCTA (sugars kkddddekekeddddd, PS) | 85 |  |  |  |  |  |
| TTCTATTAGAGGGCTA (sugars kkddddkekekddddd, PS) | 53 |  |  |  |  |  |
| TTCTCATGGTACAGGA (sugars kkddddkekekddddd, PS) | 76 |  |  |  |  |  |
| TTTAAACTCAGGTGAC (sugars kdddddkekekddddd, PS) | 45 |  |  |  |  |  |
| TTTAGAAAGGACACGG (sugars k4 d9 k3, PS) |  |  | 42% | 73% | 90% |  |
| TTTATACCAGTGTCTT (sugars kkddddkdkdkddddd, PS) | 81 |  |  |  |  |  |
| TTTATACCAGTGTCTT (sugars kkddddkekekddddd, PS) | 89 |  |  |  |  |  |
| TTTATACCAGTGTCTT (sugars kkddddkekekkdddd, PS) | 51 |  |  |  |  |  |
| TTTGGGTCAAAAGCGA (sugars k4 d9 k3, PS) |  |  |  | 66% and 85% | 83% and 93% |  |
| TTTGTAAGTGCAACCA (sugars k2 d4 e3 k2 d5, PS) | 99 | 23 | 60% | 87% | 98% |  |
| TTTTGTAAGTGCAACC (sugars k3 d4 k3 e1 d5, PS) | 98 | 38 | 71% | 93% | 97% and 98% and 94% | 38% and 24% |
| TTTTGTAAGTGCAACC (sugars kkkddddkekeddddd, PS) | 98 | 21 | 67% | 89% | 97% |  |
